Results: article PMC12040169 (PLOS Biology, 2025)

Assay: in vitro
Conditions: human, hela cells, % viability

Structure (SMILES) | viability at 28.5 h, 10 µM [%]
COCC(=O)N1CCC(c2nc(C)n3c(C)csc23)CC1 [CBK285198] | 96.7
CCOc1cccc(/C=N\NC(=O)C2COc3cc4ccccc4cc3O2)c1O (stereo not drawn) [CBK262846] | 110
Cc1ccc(S(=O)(=O)c2cc3c(=O)n4ccccc4nc3n(CCCN3CCOCC3)c2=N)cc1 [CBK265590] | 101
CC(=O)Nc1ccc(CNc2ccc(C#N)cn2)cc1 [CBK297790] | 97.7
Cc1c(C(=O)Nc2nc(-c3ccc(S(=O)(=O)N4CCOCC4)cc3)cs2)oc2ccc(Cl)cc12 [CBK267663] | 93.7
O=C(CCN1CCOCC1)Nc1cc(Cl)cc(Cl)c1 [CBK057021] | 119
Cc1ccc(N2C(=O)c3ccc(S(=O)(=O)c4cccc(C(=O)O)c4)cc3C2=O)c(C)c1 [CBK262783] | 86.2
COc1cc(CCN2CCN(C(C)C)CC2)cc(OC)c1OC [CBK028881C] | 89.8
Cc1c(Br)c(C(F)(F)F)nn1CC(=O)NCCN1CCOCC1 [CBK018700] | 107
COc1cccc(OCC(=O)O/N=C(\N)c2ccncc2)c1 [CBK262592] | 91.6
COc1ccccc1-c1ccc(CC2(C(=O)NCc3cccc(F)c3)CCOCC2)cc1 [CBK286521] | 92.6
Cc1ccc2cc(CN(Cc3cccs3)C(=O)NCc3ccccc3)c(=O)[nH]c2c1C [CBK068496] | 91.2
CC1CCN(c2ccc(S(=O)(=O)Nc3cc(C(=O)O)cc(C(=O)O)c3)cc2[N+](=O)[O-])CC1 [CBK263886] | 94.8
COc1ccc(NC(=O)N(CCO)C2CCCCC2)c(OC)c1 [CBK008768] | 90.9
O=C(CSc1nnc(-c2ccccc2Cl)[nH]1)c1ccc(O)c(O)c1 [CBK267693] | 78.3
CCOC(=O)N1CCN(C(=O)C2CC=CCC2C(=O)O)CC1 (stereo not drawn) [CBK266142] | 104
Cc1cc(C)cc(CC(C)Cc2nc3ccccc3[nH]2)c1 (stereo not drawn) [CBK262432] | 92.3
Cc1nc2c(OCc3ccc(F)c(F)c3)cccn2c1N(C)C(=O)CCC1CCCC1 [CBK147202] | 99.3
CC(c1nc(N)nc(N(C)C)n1)N(C)CCOc1ccccc1F (stereo not drawn) [CBK306053] | 88.2
Cc1ccc(OCC(=O)Nc2cc(Cl)ccc2O)cc1C [CBK265968] | 108
Nc1ncc(-c2ccccc2)nc1-c1ccc(O)cc1 [CBK064030] | 96.7
O=C(Nc1cccc(-c2nc3ncccc3o2)c1)c1cccc(OCc2ccccc2)c1 [CBK263126] | 86.2

Structure (SMILES) | viability at 28.5 h, 10 µM [%]
CC(=O)Nc1nonc1-c1nc2ccccc2n1CCC#N [CBK062641] | 100
CN(C)c1cccc(-c2nc(-c3ccco3)cnc2N)c1 [CBK063970] | 89.2
COc1ccccc1OCc1ccc(Cl)s1 [CBK002782] | 82.7
CN1CCN(c2cc(N3CCN(S(=O)(=O)c4ccc5ccccc5c4)CC3)ccc2[N+](=O)[O-])CC1 [CBK264791] | 97.6
CCN1CCN(C(=O)Cc2ccc(OC)cc2)C(Cc2ccc(-c3ccncc3)cc2)C1=O (stereo not drawn) [CBK285804] | 106
CCC1(CC)OC(N[C@@H](C)c2ccc3ccccc3c2)=NC1=O [CBK123982] | 90.2
CC(C)(C)c1ccc(Oc2c(C(F)(F)F)oc3cc(OCC(=O)O)ccc3c2=O)cc1 [CBK217882] | 94.1
CC(=O)N1CCc2c([nH]c3c(C)cccc23)C12CCN(C/C=C\c1ccccc1)C2 (stereo not drawn) [CBK040414] | 90.8
Cc1nnc(SCC(=O)NC(C)(C)C)n1NCc1cccc(Br)c1 [CBK266517] | 101
Cc1ncsc1CCOc1nc2ccccc2nc1C(F)(F)F [CBK115802] | 95.2
CN1CCN(c2nc3c([nH]2)c(=O)n(C)c(=O)n3C)CC1 [CBK269976] | 86.1
O=C(O)c1cccc(NS(=O)(=O)c2c(Cl)cc(C(F)(F)F)cc2Cl)c1 [CBK155721] | 96.3
Clc1cc(CSc2nnnn2-c2ccccc2)cc2c1OCCCO2 [CBK297159] | 92.5
Cc1cc(Br)cc(C)c1NC(=O)CSc1nnc(COc2ccccc2Cl)o1 [CBK264968] | 93
Cc1ccc(NC(=O)Cn2cnc3c(cnn3-c3ccc(C)cc3)c2=O)cc1 [CBK287534] | 104
Cc1ccc(OCC(=O)Nc2ncn(Cc3cccnc3)n2)cc1 [CBK304888] | 85
CNC(=O)CN1C(=O)CC2(C1=O)C(=O)N(CCOC)c1ccc(OC)cc12 (stereo not drawn) [CBK075144] | 90.8
O=C(NCCN1CCOCC1)C1CCCN(c2nc3c(-c4ccccc4)csc3c(=O)[nH]2)C1 (stereo not drawn) [CBK215509] | 106
CN(Cc1ccccc1)C(=O)c1cc(=O)[nH]c2ccccc12 [CBK287971] | 92.8
O=C(CSc1nnc(Cc2cccs2)n1-c1ccccc1)Nc1ccc(F)c(Cl)c1 [CBK267589] | 92.3
CC(C)(C)NC(=O)Cn1ccc2ccnc(-c3cccs3)c21 [CBK284737] | 94.1
COc1ccc(C(=O)N2CCC3(CCN(Cc4cc(OC)c(OC)c(OC)c4)C3)C2)cc1OC (stereo not drawn) [CBK132149] | 100

Structure (SMILES) | viability at 28.5 h, 10 µM [%]
COc1ccc(N2CCN(Cc3cc([N+](=O)[O-])ccc3Cl)CC2)cc1 [CBK261571] | 88.9
S=c1n(CN2CCC3(CC2)OCCO3)nc(-c2ccccc2Cl)n1-c1ccccc1 [CBK265222] | 88.4
C1=Nn2c(nnc2-c2ccncc2)SC(c2ccccc2)=C1 [CBK288535] | 101
COc1ccc(CNC(=O)c2cc(S(=O)(=O)N3CCCCC3)cs2)cc1 [CBK307590] | 85.9
Cc1nn(C)c(Cl)c1S(=O)(=O)N1CCN(C)CC1 [CBK062426] | 106
O=C(N/N=C/c1ccc[nH]1)C1CC1c1ccccc1 (stereo not drawn) [CBK022120] | 98.8
CC(C)OC(=O)N1CCN(C(=O)c2cn(Cc3cccc(S(C)(=O)=O)c3)nn2)CC1 [CBK160994T] | 88.5
NCc1ccc(OC2CCNCC2)cc1 [CBK003920T] | 88.7
COc1ccc(CCC(=O)Nc2cc(N3CCNCC3)ncn2)cc1 [CBK004231T] | 92.1
NS(=O)(=O)c1ccc(N2N=C(c3ccccc3)CC2c2ccccc2)cc1 (stereo not drawn) [CBK261511] | 95.9
CCN(CCN(C)C)Cc1ccc(F)cc1F [CBK261877] | 93.1
Clc1ccc2c(c1)CCC(NCC1COc3ccccc3O1)C2 (stereo not drawn) [CBK013077C] | 97.5
Cc1cc(-c2nnc(SCC(=O)N3CCCCC3)o2)no1 [CBK268731] | 86.6
Cc1cc(NC(=O)c2cccs2)nc2c1c(=O)oc1ccccc12 [CBK287439] | 91.8
CCN1CCN(C(=O)CN(Cc2ccccc2)S(=O)(=O)c2c(C)cc(C)cc2C)CC1 [CBK266670] | 98.1
N#C/C(=C\c1cn(-c2ccccc2)nc1-c1cccc(S(=O)(=O)N2CCCCCC2)c1)c1nc2ccccc2c(=O)[nH]1 [CBK266347] | 103
CC(=O)N1CCN(C(C(=O)O)c2c[nH]c3ccc(NC(=O)C(C)C)cc23)CC1 (stereo not drawn) [CBK286634] | 89.7
CN(C)C(=O)CCc1nc(-c2ccccn2)no1 [CBK297735] | 88.3
CCOc1cc(C(=S)N2CCOCC2)ccc1OCc1ccccc1 [CBK027466] | 99.1
O=C(O)C1C2CCC(O2)C1C(=O)N1CCN(Cc2ccc(Cl)cc2)CC1 (stereo not drawn) [CBK286943] | 97.5
O=C(OCc1ccc(Sc2ccc([N+](=O)[O-])cc2Cl)cc1)c1cnccn1 [CBK268037] | 93.4
O=C(Nc1ccc(NC(=O)c2ccco2)cc1)c1ccc(N2CCOCC2)c([N+](=O)[O-])c1 [CBK268739] | 95.2

Structure (SMILES) | viability at 28.5 h, 10 µM [%]
Cc1ccc(Cl)cc1N(CC(=O)Nc1ccccc1C(=O)O)S(C)(=O)=O [CBK264020] | 89.5
COCCc1noc(CC2CCN(c3ncc(C#N)cc3F)CC2)n1 [CBK304153] | 115
O=C(c1cccnc1)N1CCN(S(=O)(=O)c2ccccc2[N+](=O)[O-])CC1 [CBK264227] | 97
O=C(CN1C(=O)c2ccc([N+](=O)[O-])cc2C1=O)Nc1cc(Cl)ccc1C(=O)O [CBK263472] | 97.1
COc1ccc(-c2cnc(N)c(-c3ccc(F)c(Cl)c3)n2)cn1 [CBK063966] | 111
CCOc1ccccc1C(=O)N1CCC(Cc2ccccc2-c2ccccc2)(C(N)=O)CC1 [CBK285910] | 89.6
O=C(Cc1ccccc1)N1CCN(c2ncccn2)CC1 [CBK144518] | 116
O=S1(=O)CCC(c2nc(-c3ccc(Br)o3)no2)C1 (stereo not drawn) [CBK306134] | 77.8
O=[N+]([O-])c1ccc(N2CCN(CCO)CC2)cc1NCc1ccccc1 [CBK042200] | 99.9
CN(C)CCN(Cc1cccnc1)C(=O)Cc1ccc2c(c1)CCC2 [CBK282770] | 109
Cc1cc(NC(=O)Cn2cc(Br)cn2)no1 [CBK305706] | 102
CC(C)(C)c1ccc(S(=O)(=O)N2CCCC[C@H]2COC(=O)c2nccnc2C(=O)O)cc1 [CBK200065] | 91.6
c1ccc(-c2nc(N3CCOCC3)n3ccccc23)cc1 [CBK014407] | 89.2
CS(=O)(=O)c1ccc(-c2cccc(COC3CCN(C(=O)Cc4ccc(F)cc4F)CC3)c2)cc1 [CBK149506] | 87.8
O=C(O)c1cc(-c2cc(Cl)ccc2Cl)nc2ccccc12 [CBK265391] | 96.1
O=C(O)Cn1cc(C(=O)COc2ccccc2)c2ccccc21 [CBK286708] | 85.4
C(=C\c1cccc(Nc2ccc(Oc3ccccc3)cc2)n1)/c1ccccc1 [CBK037614] | 94.1
CN1CCC(N(C)C(=O)NCCN2CCOCC2)C1 (stereo not drawn) [CBK156002] | 96.3
COc1ccc(C(=O)N2CCC3(CCCN(C(=O)c4c(F)cccc4F)C3)C2)cc1OC (stereo not drawn) [CBK131669] | 94.1
CC(NS(=O)(=O)c1ccc(CCC(=O)N2CCN(C)CC2)cc1)c1ccccc1 (stereo not drawn) [CBK266868] | 91.7
NC(CCCCNC(=O)c1ccccc1)C(=O)O (stereo not drawn) [CBK261087] | 97
